33 compounds from patent US5656629A, “6-substituted pyrazolo (3,4-d)pyrimidin-4-ones and compositions and methods of use thereof” (Sanofi Winthrop, Inc., priority 1995, dated 1997) can be followed below.

For one test, the target named is T1, cGMP-PDE V (Homo sapiens, UniProt O76074).
T1 construct: isolated from cardiovascular tissues (heart and aorta); from tissue; host or cells: cardiovascular tissues (heart and aorta)
In words: cGMP-PDE V inhibition (isozyme isolated from cardiovascular tissue). The class given is biochemical, various animal species and man. Conditions: for inhibition at 0.1 µM / inhibition at 1 µM / inhibition at 10 µM / inhibition at 0.01 µM: read-out: Percent Inhibition cGMP-PDE V. The source says: The cGMP-PDE and other PDE isozymes were isolated from cardiovascular tissues (heart and aorta) of various animal species and man by anion-exchange and affinity chromatography as described by Silver et al., Sec. Messeng. Phos. […] Cyclic Nucleotide Res. 10:69-92.

Test [1] relates to Spontaneously hypertensive rats (SHR). Description: antihypertensive activity in conscious spontaneously hypertensive rats (mean arterial pressure). It is filed as in vivo. As to conditions: Rattus norvegicus, SHR iv; for ED25: 5 min, 5 min after dose, cumulative dosing, read-out: ED25, change in mean arterial pressure. As for the experimental part: After a 2 day recovery from surgery, three baseline blood pressure measurements were made at 5 min intervals in conscious SHR. Compounds to be tested or vehicle were then administered intravenously in a dose-dependent manner (0.3-10 mg base/kg) while arterial pressure was recorded continuously on a polygraph. The mean arterial pressure response was measured 5 minutes after the administration of each dose of the test compound and the next dose given in a cumulative dose fashion. The response to each dose of the test compound was calculated as the difference from the mean of the three baseline measurements.

pIC50: −log10 of the molar value.

What is called pIC50 is the IC50 on a negative log10 scale, so that one unit is a factor of ten. A low value points to a high IC50. One may read the inhibition as the relative decrease from the control value, in per cent.

For the compound “1-cyclopentyl-3-ethyl-6-[3,5-dimethylamino-4-hydroxyphenylmethyl]pyrazolo[3,4-d]pyrimidin-4-one [Example 14]”, the “Percent Inhibition cGMP-PDE V” value on cGMP-PDE V (1 μM) is reported as 28%; at cGMP-PDE V (10 μM), 77%.

`CCc1[nH]n(C2CCCC2)c2nc(Cc3ccc(OC)c(OC)c3)nc(=O)c1-2` [3(b), 1-cyclopentyl-3-ethyl-6-(3,4-dimethoxyphenylmethyl)-pyrazolo[3,4-d)pyrimidin-4-one]: the pIC50 against cGMP-PDE V is 7.66.

As for `CCc1[nH]n(C2CCCC2)c2nc(Cc3ccncc3)nc(=O)c1-2` [4(b), 1-cyclopentyl-3-ethyl-6-(4-pyridinylmethyl)pyrazolo[3,4-d]pyrimidin-4-one], the pIC50 at cGMP-PDE V was 6.19.

`CCc1[nH]n(C2CCCC2)c2nc(Cc3ccc(OCC(=O)O)cc3)nc(=O)c1-2` [8(b), 1-cyclopentyl-3-ethyl-6-[4-(carboxymethoxy)phenylmethyl]pyrazolo[3,4-d]pyrimidin-4-one] gave a negative-log IC50 (pIC50) on cGMP-PDE V of 5.92.

As to `CCc1nn(C2CCCC2)c2nc(Cc3ccc(OCCN4CCOCC4)cc3)[nH]c(=O)c12` [10(b)], in test [1], the change in vivo at 10 mg/kg is -17%. The compound also showed a pIC50 on cGMP-PDE V of 6.57.

In the case of `CCc1[nH]n(C2CCCC2)c2nc(Cc3ccc(OCc4nnn[nH]4)cc3)nc(=O)c1-2` [11(b), 1-cyclopentyl-3-ethyl-6-[4-(5-tetrazolylmethoxy)phenylmethyl]pyrazolo[3,4-d]pyrimidin-4-one], the change in vivo at 10 mg/kg in test [1] is -4%. For the same compound, the pIC50 on cGMP-PDE V is 6.51.

Turning to `CCc1nn(C2CCCC2)c2nc(Cn3cnc4ccccc43)[nH]c(=O)c12` [12(b), 1-cyclopentyl-3-ethyl-6-[1-benzimidazolylmethyl]pyrazolo[3,4-d]pyrimidin-4-one], at cGMP-PDE V, the inhibition at 0.1 µM was 17%. Moreover, the inhibition at 1 µM on cGMP-PDE V (1 μM) turned out to be 39%.

At cGMP-PDE V, `CCc1[nH]n(C2CCCC2)c2nc(CN3CCc4ccccc4C3)nc(=O)c1-2` [15(c), 1-cyclopentyl-3-ethyl-6-(1,2,3,4-tetrahydro-2-isoquinolinylmethyl)pyrazolo[3,4-d]pyrimidin-4-one] had a pIC50 of 5.75.

Consider `CCc1nn(C2CCCC2)c2nc(CN3CCCc4ccccc43)[nH]c(=O)c12` [16(b), 1-cyclopentyl-3-ethyl-6-(1,2,3,4-tetrahydro-1-quinolinylmethyl)pyrazolo[3,4-d]pyrimidin-4-one], for which the inhibition at 1 µM on cGMP-PDE V (1 μM) stood at 32%. Besides, the inhibition at 10 µM on cGMP-PDE V (10 μM) turned out to be 90%.

Turning to `CCc1nn(C2CCCC2)c2nc(Cn3ccnc3)[nH]c(=O)c12` [18(b), 1-cyclopentyl-3-ethyl-6-(1-imidazolylmethyl)pyrazolo[3,4-d]pyrimidin-4-one], the inhibition at 1 µM on cGMP-PDE V (1 μM) was found to be 33%.

For `CCc1nn(C2CCCC2)c2nc(Cc3cccc(OCCN4CCOCC4)c3)[nH]c(=O)c12` [21(c), 1-cyclopentyl-3-ethyl-6-[3-[2-(4-morpholinyl)ethoxy]phenylmethyl]pyrazolo[3.4-d]pyrimidin-4-one], the pIC50 against cGMP-PDE V is 6.38.

Take `CCc1nn(C2CCCC2)c2nc(Cn3cccn3)[nH]c(=O)c12` [23(b), 1-cyclopentyl-3-ethyl-6-(1-pyrazolylmethyl)pyrazolo[3,4-d]pyrimidin-4-one]: the inhibition at 1 µM on cGMP-PDE V (1 μM) stood at 33%.

For the compound `CCc1[nH]n(C2CCCC2)c2nc(Cc3ccc(C(F)(F)F)cc3)nc(=O)c1-2` [24(b), 1-cyclopentyl-3-ethyl-6-(4-trifluoromethylphenylmethyl) pyrazolo[3,4-d]pyrimidin-4-one], in test [1], the change in vivo at 10 mg/kg is -8%. At cGMP-PDE V, this compound had a negative-log IC50 (pIC50) of 6.74.

Take `CCc1[nH]n(C2CCCC2)c2nc(Cc3ccc([N+](=O)[O-])cc3)nc(=O)c1-2` [25(a), 1-cyclopentyl-3-ethyl-6-(4-nitrophenylmethyl)pyrazolo[3,4-d]pyrimidin-4-one]: the change in vivo at 10 mg/kg in test [1] is -5%. Besides, the pIC50 against cGMP-PDE V was 7.12.

On to `CCc1[nH]n(C2CCCC2)c2nc(Cc3ccccc3OC)nc(=O)c1-2` [27(b), 1-cyclopentyl-3-ethyl-6-(2-methoxyphenylmethyl)pyrazolo[3,4-d]pyrimidin-4-one], for which, on cGMP-PDE V, the inhibition at 0.1 µM turned out to be 25%. Also, the inhibition at 1 µM on cGMP-PDE V (1 μM) was found to be 73%.

In the case of `CCc1[nH]n(C2CCCC2)c2nc(Cc3c(C)noc3C)nc(=O)c1-2` [28(b), 1-cyclopentyl-3-ethyl-6-(3,5-dimethyl-4-isoxazolylmethyl)pyrazolo[3,4-d]pyrimidin-4-one], at cGMP-PDE V (1 μM), the inhibition at 1 µM stood at 48%.

On to `CCc1[nH]n(C2CCCC2)c2nc(Cc3ccc(OC(=O)c4ccc(CN(CC)CC)cc4)cc3)nc(=O)c1-2` [33(b), 1-cyclopentyl-3-ethyl-6-[4-[4-(diethylaminomethyl)phenylcarbonyloxy]phenylmethyl]pyrazolo[3,4-d]pyrimidin-4-one], for which, in test [1], the ED25 amounted to 9.3 mg/kg and the change in vivo at 10 mg/kg is -27%. Also, the inhibition at 0.1 µM at cGMP-PDE V came out at 56%.

As to `CCc1[nH]n(C2CCCC2)c2nc(Cc3ccc(-n4ccnc4)cc3)nc(=O)c1-2` [36(b), 1-cyclopentyl-3-ethyl-6-[4-(1-imidazolyl)phenylmethyl]pyrazolo[3,4-d]pyrimidin-4-one], at cGMP-PDE V, the inhibition at 0.1 µM was found to be 26%. Also, the inhibition at 1 µM on cGMP-PDE V (1 μM) came to 62%.

As to `Cc1[nH]n(C(C)(C)C)c2nc(Cc3ccccc3)nc(=O)c1-2` [37(d), 1-tert-butyl-3-methyl-6-(phenylmethyl)pyrazolo[3,4-d]pyrimidin-4-one], the inhibition at 0.1 µM at cGMP-PDE V turned out to be 36%. In addition, on cGMP-PDE V (1 μM), the inhibition at 1 µM came out at 78%.

`CCc1[nH]n(C2CCCC2)c2nc(Nc3ccccc3)nc(=O)c1-2` [38(d), 1-cyclopentyl-3-ethyl-6-(phenylamino)pyrazolo[3,4-d]pyrimidin-4-one] showed a pIC50 at cGMP-PDE V of 6.57.

Take `CCc1nn(C2CCCC2)c2nc(Cn3cccc3)[nH]c(=O)c12` [Example 5, 1-cyclopentyl-3-ethyl-6-(1-pyrrolylmethyl)-pyrazolo[3,4-d]pyrimidin-4-one]: at cGMP-PDE V, the negative-log IC50 (pIC50) is 6.51.

In turn, `CCc1[nH]n(C2CCCC2)c2nc(Cc3ccccn3)nc(=O)c1-2` [Example 9, 1-cyclopentyl-3-ethyl-6-(2-pyridinylmethyl)pyrazolo[3,4-d]pyrimidin-4-one] gave a negative-log IC50 (pIC50) on cGMP-PDE V of 6.27.

With `CCc1[nH]n(C2CCCC2)c2nc(Cc3cccnc3)nc(=O)c1-2` [Example 13, 1-cyclopentyl-3-ethyl-6-[3-pyridinylmethyl]pyrazolo[3,4-d]pyrimidin-4-one], the pIC50 on cGMP-PDE V is 6.18. This pIC50 and that of the compound before are within 0.2 log units of each other.

Regarding `CCc1[nH]n(C2CCCC2)c2nc(CO)nc(=O)c1-2` [Example 17, 1-cyclopentyl-3-ethyl-6-(hydroxymethyl)pyrazolo[3,4-d]pyrimidin-4-one], the inhibition at 1 µM at cGMP-PDE V (1 μM) was 20%. Moreover, the inhibition at 10 µM on cGMP-PDE V (10 μM) came to 61%.

On to `CCc1[nH]n(C2CCCC2)c2nc(Cc3cccc(OC)c3)nc(=O)c1-2` [Example 19, 1-cyclopentyl-3-ethyl-6-(3-methoxyphenylmethyl)pyrazolo[3,4-d]pyrimidin-4-one], for which, in test [1], the ED25 came to 11 mg/kg and the change in vivo at 10 mg/kg was -21%. The compound also gave a pIC50 against cGMP-PDE V of 7.48.

For `CCc1[nH]n(C2CCCC2)c2nc(Cc3cccn3C)nc(=O)c1-2` [Example 22, 1-cyclopentyl-3-ethyl-6-(1-methyl-2-pyrrolylmethyl)pyrazolo[3,4-d]pyrimidin-4-one], the pIC50 against cGMP-PDE V was 6.52.

As to `CCc1[nH]n(C2CCCC2)c2nc(Cc3ccc(NS(C)(=O)=O)cc3)nc(=O)c1-2` [Example 29, 1-cyclopentyl-3-ethyl-6-[4-(methylsulfonylamino)phenylmethyl]pyrazolo[3,4-d]pyrimidin-4-one], at cGMP-PDE V, the inhibition at 0.01 µM was 77% and the inhibition at 0.1 µM came out at 94%.

`CCc1[nH]n(C2CCCC2)c2nc(Cc3ccccc3O)nc(=O)c1-2` [Example 30, 1-cyclopentyl-3-ethyl-6-(2-hydroxyphenylmethyl)pyrazolo[3,4-d]pyrimidin-4-one]: on cGMP-PDE V, the inhibition at 0.1 µM amounted to 43%. Besides, the inhibition at 1 µM on cGMP-PDE V (1 μM) came to 73%.

On cGMP-PDE V, `CCc1[nH]n(C2CCCC2)c2nc(Cc3ccsc3)nc(=O)c1-2` [Example 31, 1-cyclopentyl-3-ethyl-6-(3-thienylmethyl)pyrazolo[3,4-d]pyrimidin-4-one] showed a pIC50 of 7.52.

As for `CCc1[nH]n(C2CCCC2)c2nc(Cc3cccs3)nc(=O)c1-2` [Example 32, 1-cyclopentyl-3-ethyl-6-(2-thienylmethyl)pyrazolo[3,4-d]pyrimidin-4-one], on cGMP-PDE V, the inhibition at 0.01 µM was determined as 24% and the inhibition at 0.1 µM is 58%. In addition, at cGMP-PDE V (1 μM), the inhibition at 1 µM was 89%.

For the compound `CCc1[nH]n(C2CCCC2)c2nc(Cc3ccccc3N)nc(=O)c1-2` [Example 34, 1-cyclopentyl-3-ethyl-6-(2-aminophenylmethyl)pyrazolo[3,4-d]pyrimidin-4-one], the inhibition at 0.1 µM on cGMP-PDE V came out at 45%. Also, the inhibition at 1 µM at cGMP-PDE V (1 μM) was found to be 78%.

As for `CCc1[nH]n(C2CCCC2)c2nc(Cc3ccc(N(C)C)cc3)nc(=O)c1-2` [Example 35, 1-cyclopentyl-3-ethyl-6-(4-dimethylaminophenylmethyl)pyrazolo[3,4-d]pyrimidin-4-one], the inhibition at 0.1 µM on cGMP-PDE V came out at 34%. Besides, the inhibition at 1 µM at cGMP-PDE V (1 μM) was determined as 53%.

As to `CCc1[nH]n(C2CCCC2)c2nc(Oc3ccccc3)nc(=O)c1-2` [Example 39, 1-cyclopentyl-3-ethyl-6-(phenyloxy)pyrazolo[3,4-d]pyrimidin-4-one], the inhibition at 0.1 µM at cGMP-PDE V came out at 33%. Further, the inhibition at 1 µM at cGMP-PDE V (1 μM) turned out to be 74%.
